Active and inactive are the calls of the source. No cut-off for these calls is given here.
What was measured:
[1] = Toxicity in Balb/c mouse assessed as MPO level in serum at 1000 mg/kg, using gastric tube; type: organism-based; settings: in vivo, po, route ig
[2] = Oral bioavailability in Sprague-Dawley rat at 10 mg/kg upto 24 hrs by HPLC analysis; type: ADME, organism-based; settings: in vivo
[3] = AUC (0 to infinitive) in Sprague-Dawley rat at 2 mg/kg, iv upto 24 hrs by HPLC analysis; type: ADME, organism-based; set-up: time < 24 hrs, dose 2 mg/kg, route iv; settings: in vivo
[4] = Cmax in Sprague-Dawley rat at 2 mg/kg, iv upto 24 hrs by HPLC analysis; type: ADME, organism-based; set-up: dose 2 mg/kg, time < 24 hrs, route iv; settings: in vivo
[5] = Cmax in Sprague-Dawley rat at 10 mg/kg, po upto 24 hrs by HPLC analysis; type: ADME, organism-based; set-up: time < 24 hrs, dose 10 mg/kg, route po; settings: in vivo
[6] = MRT in Sprague-Dawley rat at 2 mg/kg, iv upto 24 hrs by HPLC analysis; type: ADME, organism-based; settings: in vivo
[7] = MRT in Sprague-Dawley rat at 10 mg/kg, po upto 24 hrs by HPLC analysis; type: ADME, organism-based; settings: in vivo
[8] = Tmax in Sprague-Dawley rat at 10 mg/kg, po upto 24 hrs by HPLC analysis; type: ADME, organism-based; settings: in vivo
[9] = Half life in Sprague-Dawley rat at 2 mg/kg, iv upto 24 hrs by HPLC analysis; type: ADME, organism-based; settings: in vivo
[10] = Half life in Sprague-Dawley rat at 10 mg/kg, po upto 24 hrs by HPLC analysis; type: ADME, organism-based; settings: in vivo
[11] = Toxicity in ICR mouse assessed as kidney damage at 1000 mg/kg, using gastric tube by H&E staining assay; type: organism-based; settings: in vivo, po, route ig
[12] = Toxicity in ICR mouse assessed as lung damage at 1000 mg/kg, using gastric tube by H&E staining assay; type: organism-based; settings: in vivo, po, route ig
[13] = Toxicity in ICR mouse assessed as spleen damage at 1000 mg/kg, using gastric tube by H&E staining assay; type: organism-based; settings: in vivo, po, route ig
[14] = Toxicity in ICR mouse assessed as heart damage at 1000 mg/kg, using gastric tube by H&E staining assay; type: organism-based; settings: in vivo, po, route ig
[15] = Toxicity in ICR mouse assessed as abnormal behavior at 1000 mg/kg, using gastric tube; type: organism-based; settings: in vivo, po, route ig
[16] = tested on: CT26; assay: In vivo inhibition of CDK8 in mouse CT26 cells transplanted in […] mouse assessed as downregulation of beta-catenin in tumor at 10 to 40 mg/kg, po daily measured after 21 days; type: functional, organism-based; settings: dose 10-40 mg/kg, time 21.0 day
[17] = target: T1, Cyclin-dependent kinase 8 (Homo sapiens, UniProt P49336); assay: Inhibition of CDK8 (unknown origin) assessed as inhibition rate
[18] = tested on: HCT-116; assay: Antiproliferative activity against human HCT-116 cells assessed as cell viability incubated for 48 hrs by MTT assay; type: functional
[19] = tested on: HT-29; assay: Antiproliferative activity against human HT-29 cells assessed as cell viability incubated for 48 hrs by MTT assay; type: functional
[20] = tested on: SW480; assay: Antiproliferative activity against human SW480 cells assessed as cell viability incubated for 48 hrs by MTT assay; type: functional
[21] = tested on: CT26; assay: Antiproliferative activity against […] cells assessed as cell viability incubated for 48 hrs by MTT assay; type: functional; settings: Mus musculus
[22] = Cytotoxicity against human GES1 cells assessed as cell viability incubated for 48 hrs by MTT assay; type: toxicity, cell-based
[23] = target: Cyclin-dependent kinase 6 (Homo sapiens, UniProt Q00534); assay: Inhibition of CDK6 (unknown origin) assessed as inhibition rate
[24] = target: Cyclin-dependent kinase 7 (Homo sapiens, UniProt P50613); assay: Inhibition of CDK7 (unknown origin) assessed as inhibition rate
[25] = species on record: Homo sapiens; assay: Selectivity ratio of IC50 for human CDK6 to IC50 for human CDK8
[26] = species on record: Homo sapiens; assay: Selectivity ratio of IC50 for human CDK7 to IC50 for human CDK8
[27] = target: T1, Cyclin-dependent kinase 8; assay: Binding affinity to CDK8 in human HCT-116 cells by measuring competition with biotinylated (1-(4-((6-aminopyridin-3-yl)oxy)phenyl)-3-(3-(trifluoromethyl)-phenyl)urea hydrochloride); type: cell-based
[28] = target: T1, Cyclin-dependent kinase 8; assay: Binding affinity to CDK8 in human HCT-116 cells assessed as increase in degradation temperature of protein by CETSA (reference value: 49 degC); type: cell-based
[29] = target: T1, Cyclin-dependent kinase 8; assay: Inhibition of CDK8 in human HCT-116 cells assessed as inhibition of STAT1 phosphorylation at Ser727 by Western blot analysis; type: cell-based
[30] = target: T1, Cyclin-dependent kinase 8; assay: Inhibition of CDK8 in human HCT-116 cells assessed as inhibition of […] phosphorylation at Tyr701 by Western blot analysis; type: cell-based
[31] = target: T1, Cyclin-dependent kinase 8; assay: Binding affinity to CDK8-Flag (unknown origin) transfected in HEK293T cells; type: cell-based
[32] = tested on: HCT-116; assay: Decrease in Cyclin D1 expression in human HCT-116 cells at 1 to 4 uM incubated for 48 hrs by western blotting analysis; type: functional, cell-based; settings: dose 1-4 µM
[33] = tested on: HCT-116; assay: Decrease in C-Myc expression in human HCT-116 cells at 1 to 4 uM incubated for 48 hrs by western blotting analysis; type: functional, cell-based; settings: dose 1-4 µM
[34] = tested on: HCT-116; assay: Decrease in Lef expression in human HCT-116 cells at 1 to 4 uM incubated for 48 hrs by western blotting analysis; type: functional, cell-based; settings: dose 1-4 µM
[35] = tested on: HCT-116; assay: Decrease in TCF1 expression in human HCT-116 cells at 1 to 4 uM incubated for 48 hrs by western blotting analysis; type: functional, cell-based; settings: dose 1-4 µM
[36] = tested on: HCT-116; assay: Decrease in beta-catenin expression in human HCT-116 cells at 1 to 4 uM incubated for 12 hrs by western blotting analysis; type: functional, cell-based; settings: dose 1-4 µM
[37] = tested on: HCT-116; assay: Decrease in WNT-3alpha expression in human HCT-116 cells at 1 to 4 uM incubated for 12hrs by western blotting analysis; type: functional, cell-based; settings: dose 1-4 µM
[38] = tested on: HCT-116; assay: Decrease in beta-catenin/TCF/Lef combination expression in human HCT-116 cells at 1 to 4 uM incubated for 24 hrs by western blotting analysis; type: functional, cell-based; settings: dose 1-4 µM
[39] = tested on: HCT-116; assay: Induction of cell cycle arrest in human HCT-116 cells assessed as increase in cells at G1 phase measured after 48 hrs by flow cytometry; type: functional, cell-based
[40] = tested on: HCT-116; assay: Induction of cell cycle arrest in human HCT-116 cells assessed as increase in cells at S phase measured after 48 hrs by flow cytometry; type: functional, cell-based
[41] = tested on: HCT-116; assay: Induction of cell cycle arrest in human HCT-116 cells assessed as decrease in CDK6 level incubated for 24 hrs by Western blot analysis; type: functional, cell-based
[42] = tested on: HCT-116; assay: Induction of cell cycle arrest in human HCT-116 cells assessed as increase in E2F1 level incubated for 24 hrs by Western blot analysis; type: functional, cell-based
[43] = tested on: HCT-116; assay: Decrease in CTD phosphorylation in human HCT-116 cells at 1 to 4 uM incubated for 48 hrs by western blotting analysis; type: functional, cell-based; settings: dose 1-4 µM
[44] = tested on: HCT-116; assay: Antiproliferative activity against sorafenib-resistant human HCT-116 cells assessed as cell viability incubated for 48 hrs by MTT assay; type: functional
[45] = tested on: HCT-116; assay: Potency index, ratio of Sorafenib IC50 to test compound IC50 for antiproliferative activity against human HCT-116 cells incubated for 48 hrs by MTT assay; type: functional
[46] = tested on: CT26; assay: Anticancer activity against mouse CT26 cells transplanted in […] mouse assessed as reduction in tumor growth at 10 to 40 mg/kg, po daily measured after 21 days; type: functional, organism-based; settings: dose 10-40 mg/kg, time 21.0 day
[47] = target: T1, Cyclin-dependent kinase 8; settings: dose 200.0 nM

T1 sequence (P49336 whole entry): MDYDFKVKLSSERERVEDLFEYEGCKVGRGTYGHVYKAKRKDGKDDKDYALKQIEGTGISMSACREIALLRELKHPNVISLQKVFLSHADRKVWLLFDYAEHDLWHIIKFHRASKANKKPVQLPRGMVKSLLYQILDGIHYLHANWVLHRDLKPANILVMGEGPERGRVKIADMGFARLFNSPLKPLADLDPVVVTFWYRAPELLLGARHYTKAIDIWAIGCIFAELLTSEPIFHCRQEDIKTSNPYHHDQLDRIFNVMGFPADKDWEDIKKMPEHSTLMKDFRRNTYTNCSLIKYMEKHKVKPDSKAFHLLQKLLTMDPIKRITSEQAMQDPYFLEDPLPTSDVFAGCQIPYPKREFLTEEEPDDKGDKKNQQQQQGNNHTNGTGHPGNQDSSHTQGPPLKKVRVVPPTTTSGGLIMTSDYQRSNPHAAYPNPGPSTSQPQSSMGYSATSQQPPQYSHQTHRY
Sequence of Cyclin-dependent kinase 6 (Q00534 whole entry): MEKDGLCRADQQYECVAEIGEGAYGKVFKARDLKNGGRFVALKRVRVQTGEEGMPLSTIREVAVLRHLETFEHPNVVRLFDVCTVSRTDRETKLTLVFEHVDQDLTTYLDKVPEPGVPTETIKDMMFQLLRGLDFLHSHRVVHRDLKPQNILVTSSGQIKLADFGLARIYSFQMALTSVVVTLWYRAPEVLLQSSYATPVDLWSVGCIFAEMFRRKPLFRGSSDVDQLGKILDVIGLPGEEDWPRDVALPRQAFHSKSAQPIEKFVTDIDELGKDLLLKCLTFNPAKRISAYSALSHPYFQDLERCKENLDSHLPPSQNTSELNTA
Sequence of Cyclin-dependent kinase 7 (P50613 whole entry): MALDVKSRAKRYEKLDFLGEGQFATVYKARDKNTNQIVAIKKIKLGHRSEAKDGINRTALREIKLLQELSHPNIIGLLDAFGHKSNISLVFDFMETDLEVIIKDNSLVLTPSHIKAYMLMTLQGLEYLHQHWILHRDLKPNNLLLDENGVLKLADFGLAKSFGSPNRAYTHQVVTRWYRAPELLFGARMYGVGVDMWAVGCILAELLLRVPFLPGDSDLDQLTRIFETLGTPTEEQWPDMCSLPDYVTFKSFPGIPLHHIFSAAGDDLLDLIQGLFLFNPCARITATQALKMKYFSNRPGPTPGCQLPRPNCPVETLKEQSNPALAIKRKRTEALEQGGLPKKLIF

bioavailability [2]: 31.7%
AUC(0-inf) [3]: 0.382 µg·h/mL
Cmax [4]: 0.318 µg/mL
Cmax [5]: 0.453 µg/mL
MRT [6]: 54 min
MRT [7]: 96 min
Tmax [8]: 48 min
half-life [9]: 30 min
half-life [10]: 66 min
IC50 [17]: 0.0465 µM
GI50 [18]: 1.2 µM
GI50 [19]: 0.7 µM
GI50 [20]: 2.4 µM
GI50 [21]: 5.5 µM
IC50 [23]: 0.251 µM
IC50 [24]: 0.0996 µM
Ratio IC50 [25]: 2
Ratio IC50 [26]: 2
Activity [27]: Active
Tm [28]: 55 °C
inhibition [29]: Active
inhibition [30]: Active
Activity [31]: Active
GI50 [44]: 17.5 µM
inhibition [47]: 73.6%
SMILES: Nc1ccc(Oc2ccc(NC(=O)Nc3cccc(C(F)(F)F)c3)cc2)cn1
Activity [1]: Non-Toxic
Activity [11]: Non-Toxic
Activity [12]: Non-Toxic
Activity [13]: Non-Toxic
Activity [14]: Non-Toxic
Activity [15]: Non-Toxic
Activity [16]: Active
GI50 at 48 h [22]: 62.7 µM
Activity [32]: Active
Activity [33]: Active
Activity [34]: Active
Activity [35]: Active
Activity [36]: Active
Activity [37]: Active
Activity [38]: Active
Activity [39]: Active
Activity [40]: Active
Activity [41]: Active
Activity [42]: Active
Activity [43]: Active
Ratio [45]: 3.6
Activity [46]: Active
